Here are results for five compounds from patent publication US20220054384A1, “MICROBIOSTATIC SOAP THAT REDUCES THE TRANSMISSION OF MICROBES” (GPCP IP Holdings LLC, priority 2018, published 2022).

For test [1], the system named is Staphylococcus aureus ATCC 6538 and Escherichia coli ATCC 15225. The experiment in a line: Bacteriostatic MIC of release agents (modified standard MIC protocol, tube growth then streak onto TSA plate). It is filed as cell-based. The conditions noted are these: lower bacteriostatic limit (bacteriostatic MIC): no growth in tube, growth on TSA plate. The text has this:
Release agents for use in the described soaps and hard surface cleaners are those materials that can coat all or part of a microbe or spore wall, but not penetrate the cellular or spore wall, rendering the microbe unable to infect skin or reproduce at the time of application. Not only does the release agent coat the microbe, it also coats skin. Because the microbe coating and skin coating have similar charges, the microbe is repelled from the skin surface into the soap layer. After rinsing the soap, the material is disrupted and releases, allowing regrowth of the microbe. […] However, when the solution is swabbed onto a growth media plate, polymer disruption and release occur, allowing the microbe to resume growth. […] A series of compounds were tested to determine whether microbes exposed to these compositions and rinsed off were still viable to regrow. The standard MIC protocol (Internal NTC Microbiology Lab Method: MB-025) was followed for this work with some modifications. The organisms used were Staphylococcus aureus ATCC® 6538™ and Escherichia coli ATCC® 15225™ (94 TFM). All organisms were purchased from Microbiologics® and grown in the lab on Trypticase Soy Agar (TSA) at 35° C. The organisms were washed off of the agar into 0.1% peptone water and visually matched to a McFarland 0.5 Standard (equal to […]). Ten-fold serial dilutions were prepared for all chemicals tested in Mueller-Hinton II Broth (MH Broth). An initial 1:10 dilution in MH Broth was made and all subsequent dilutions were prepared by removing 1 mL from the previous dilution and transferring to a sterile MH Broth tube. For the initial screening, 1:10 serial dilutions were prepared through 1:1,000,000. One mL of the bacterial solution was added to each dilution tube and vortexed to mix. […] For subsequent round(s) of testing, the parts per million (ppm) of chemical was calculated and dilution tubes were prepared to bracket the ppm of growth/no-growth seen during the first round of testing. Each tube was prepared by adding in the calculated amount of MH Broth and test substance. The inoculation and incubation procedure was followed as stated above. […] For the second round of samples, each tube with no growth was streaked onto a Trypticase Soy Agar (TSA) plate to identify if the organism was still present in the tube but unable to grow in the presence of the chemical. All TSA plates were incubated for 18±4 hours at 37° C. and then observed for growth/no-growth.

Test [2] has the same test system. The test is described as above. In kind it is cell-based. The conditions noted are these: upper bacteriostatic concentration limit of release agent; no initial growth in solution but growth after swabbing onto growth media plate.

`CCCCCCCCOC(=O)CC(C(=O)OCCCCCCCC)S(=O)(=O)[O-].[Na+]` (stereo not shown) [Dioctyl sulfosuccinate sodium salt]: the “Lower Limit from 24-hour growth (%)” value in test [1] is given as 5.0%. Besides, the “Upper Limit from 1 min Exposure” value in test [2] was 5.0.

With `CCCCCCCCCCCC(=O)NCCC[N+](C)(C)CC(=O)[O-]` [Lauramidopropyle betaine], in test [1], the “Lower Limit from 24-hour growth (%)” value worked out at 0.1%. Further, the “Upper Limit from 1 min Exposure” value in test [2] worked out at 4.0.

Regarding Cocamidopropyl betaine, the “Lower Limit from 24-hour growth (%)” value in test [1] came to 1.0%. Further, the “Upper Limit from 1 min Exposure” value in test [2] turned out to be 27.0.

As to Cocamidopropyl hydroxy sultaine, in test [1], the “Lower Limit from 24-hour growth (%)” value was 0.5%. Moreover, the “Upper Limit from 1 min Exposure” value in test [2] came to 45.0.

Regarding Disodium Cocamphodiacetate, in test [1], the “Lower Limit from 24-hour growth (%)” value amounted to 2.0%. Besides, the “Upper Limit from 1 min Exposure” value in test [2] is 36.0.
